Experimental data from US20220242905A1, “MODIFIED PEPTIDES AND THEIR USE” (UNIVERSITE DE MONTPELLIER, priority 2018, published 2022).
Converted amounts (≈) assume the structure as drawn. Where two headings read alike, the source gives them in different places.

Legend:
[1] = tested on: Bacillus subtilis ATCC6633; type: cell-based; settings: for Minimal inhibitory concentration (MIC) B. subtilis ATCC6633: ATCC6633, 24 h; for Minimal bactericidal concentration (MBC) B. subtilis ATCC6633: value in bracket, 24 h at 37° C.
Protocol: (§1) Minimal inhibitory concentration (MIC) values and minimal bactericidal concentration (MBCs) values for ATC-peptides 1-9 were determined against both Gram-positive (Bacillus subtilis, Staphylococcus aureus, Enterococcus faecalis) and Gram negative (Escherichia coli, Pseudomonas aeruginosa) bacteria as well as a yeast (Candida albicans). Experiments were conducted in triplicate. For B. subtilis, compounds were tested against vegetative cells and spores, which are particularly resistant to the action of antimicrobial agents. MIC and MBCs values are shown Table 12. In addition, haemolytic properties of 1-9 were tested.
(§2) the antimicrobial performances of oligomers antimicrobial activity were determined on three Gram positive strains (Bacillus subtilis ATCC6633, Staphylococcus aureus ATCC6538 and Enterococcus faecalis ATCC29121), two Gram negative strains (Escherichia coli ATCC8739 and Pseudomonas aeruginosa ATCC9027) and one fungal strain (Candida albicans ATCC10231). Each bacterial strain was allowed to grow overnight on Trypto-Caseine-Soja agar (TSA, Difco) at 37° C., C. albicans was allowed to grow 48 h on a sabouraud medium (Difco) at 20-25° C. A fresh suspension at 10^8 CFU·mL^−1 was then prepared by inoculating the micro-organisms in a Tryptone-Sel solution. Concentration was monitored by measuring transmitted light at 620 nm or with the Mac Farland turbidity standard (Mac Farland=0.5≈10^8 CFU·mL^−1). Each suspension was then diluted in a doubly strong Mueller-Hinton (MH, Difco) broth to […]. Two-fold serial dilutions (100 μL) of oligomers in sterile water (pH adjusted between 7.4 and 7.7 with HCl and NaOH solutions) were mixed with microbial inoculum (100 μL) in NUNC sterile clear polystyrene flat-bottom 96-well plates. A 1/1 v/v oligomer solution/water mixture was used a negative control and a 1/1 vv water/microbial inoculum mixture was used a positive control. Plates were then incubated 24 h at 37° C. for bacteria and 48 h at 25° C. for C. albicans. Minimum Inhibitory Concentration (MIC) was determined as the lowest concentration inhibiting the growth of each micro-organism. […] Minimum Bactericidal Concentration (MBC) was determined as the lowest concentration that prevent the growth of more than one colony. Each assay was performed in a triple duplicate for each strain.

[2] = tested on: Enterococcus faecalis ATCC29121; type: cell-based; settings: for Minimal inhibitory concentration (MIC) E. faecalis ATCC29121: ATCC29121, 24 h; for Minimal bactericidal concentration (MBC) E. faecalis ATCC29121: value in bracket, 24 h at 37° C.
Protocol: as §1, §2

[3] = tested on: Pseudomonas aeruginosa ATCC9027; type: cell-based; settings: for Minimal inhibitory concentration (MIC) P. aeruginosa ATCC9027: ATCC9027, 24 h; for Minimal bactericidal concentration (MBC) P. aeruginosa ATCC9027: value in bracket, 24 h at 37° C.
Protocol: as §1, §2

[4] = tested on: Escherichia coli ATCC8739; type: cell-based; settings: for Minimal inhibitory concentration (MIC) E. coli ATCC8739: ATCC8739, 24 h; for Minimal bactericidal concentration (MBC) E. coli ATCC8739: value in bracket, 24 h at 37° C.
Protocol: as §1, §2

[5] = tested on: Staphylococcus aureus ATCC6538; type: cell-based; settings: for Minimal inhibitory concentration (MIC) S. aureus ATCC6538: ATCC6538, 24 h; for Minimal bactericidal concentration (MBC) S. aureus ATCC6538: value in bracket, 24 h at 37° C.
Protocol: as §1, §2

[6] = tested on: Candida albicans ATCC10231; type: cell-based; settings: for Minimal inhibitory concentration (MIC) C. albicans ATCC10231: ATCC10231, 48 h; for Minimal bactericidal concentration (MBC) C. albicans ATCC10231: value in bracket, 48 h at 25° C.
Protocol: as §1, §2

[7] = tested on: Human red blood cells (hRBCs); experiment: Hemolytic activity; type: cell-based; settings: 1 h at 37° C., printed in the HD50 column
Protocol: (§3) Procedure for measurements of hemolytic activity: Human red blood cells (hRBCs) were washed multiple times with phosphate-buffered saline (PBS) until a clear supernatant was obtained. The hRBCs suspension was made in PBS with a Packed Cell Volume of 5%, Two-fold serial dilutions (50 μL) of oligomers in sterile water (pH adjusted between 7.4 and 7.7 with HCl and NaOH solutions) were mixed with hRBCs suspension (50 μL) in clear polystyrene optical-bottom 96-well plates which were filmed and incubated for 1 h at 37° C. A 1/1 vv hRBCs solution/PBS mixture was used a negative control and a 1/1 vv hRBCs solution/1% (TRIS 50 mM pH=8.0+1% SDS) mixture was used a positive control for 100% hemolysis. The mixture was then centrifuged at 1500 g for 10 min at 5° C. Next, 50 μL of the supernatant was transferred into a second plate, and the absorbance was read at 490 nm using a BioRad iMark plate reader. The hemolysis percentage was calculated by the formula % hemolysis=[Absorbance (sample)−Absorbance (negative control)]/[Absorbance (positive control)−Absorbance (negative control)]×100%. Each assay was performed in a double duplicate. Hemolytic activity was determined or estimated with the Hemolytic Concentration leading to 50% of lysis of hRBCs (HC50).

[8] = Hemolytic activity; type: cell-based, Human; settings: human, human red blood cell suspension; hRBCs, 1 h at 37° C.; read-out: HD50, dose required to lyse 50% of the red blood cells
Protocol: as §3

[9] = tested on: E. coli; experiment: Surface electron microscopy (SEM) of bacterial morphology; type: cell-based, Escherichia coli; settings: after 60 min incubation with 8×MIC; untreated about 2.0 μm
Protocol: FIG. 18 represents electronic microscopy photos. A/, B/ and C/ SEM micrographs untreated E. coli on glass platelets. In isotonic medium the cells are long, intact and evenly shaped.
FIG. 19 represents SEM micrographs untreated E. coli after 60 min incubation with 8×MIC of 9.
Surface electron microscopy (SEM) experiments: oligomer 9 was evaluated for its impact on E. coli morphology by surface electron microscopy (SEM). In order to define the best incubation period to observed antimicrobial effects, time-kill study was conducted over 2 h incubation at 37° C. […] Significant decrease of the growth rate was observed between 40 to 60 min at 4× and 8×MIC. […] experiments were performed after 60 min contact between bacteria cells and compound 9. […] In addition, whereas there were no fragments for control untreated bacteria, numerous spherical elements whose diameters were lower than 0.1 μm were observed around bacteria, the number of which increasing with the peptide concentration. Despite some dispersion in size, such fragments, probable microsomes, were classically reported with other AMPs associated with membrane permeation and/or depolarization. [M. Hartmann, M. Berditsch J. Hawecker, F. Ardakani, D. Gerthsen, A. S. Ulrich, Antimicrob. Agents Chemother. 2010, 54, 3132-3142 b/ E. Duval, C, Zatylny, M. Laurencin, M. Baudy-Floc'h, J. Henry, Peptides 2009, 30, 1608-1612.] […]

[10] = tested on: E. coli; type: cell-based, Escherichia coli; settings: 2 h
Protocol: FIG. 17 represents a graphic showing the results of a time-kill study of oligomer 9 on E. coli over 2 h incubation at 37° C.
Surface electron microscopy (SEM) experiments: oligomer 9 was evaluated for its impact on E. coli morphology by surface electron microscopy (SEM). In order to define the best incubation period to observed antimicrobial effects, time-kill study was conducted over 2 h incubation at 37° C. […] Significant decrease of the growth rate was observed between 40 to 60 min at 4× and 8×MIC. TEM experiments were performed after 60 min contact between bacteria cells and compound 9. […] In addition, whereas there were no fragments for control untreated bacteria, numerous spherical elements whose diameters were lower than 0.1 μm were observed around bacteria, the number of which increasing with the peptide concentration. Despite some dispersion in size, such fragments, probable microsomes, were classically reported with other AMPs associated with membrane permeation and/or depolarization. [M. Hartmann, M. Berditsch J. Hawecker, F. Ardakani, D. Gerthsen, A. S. Ulrich, Antimicrob. Agents Chemother. 2010, 54, 3132-3142 b/ E. Duval, C, Zatylny, M. Laurencin, M. Baudy-Floc'h, J. Henry, Peptides 2009, 30, 1608-1612.]

Row | Compound | Minimal inhibitory concentration (MIC) B. subtilis ATCC6633 [1] | Minimal inhibitory concentration (MIC) E. faecalis ATCC29121 [2] | Minimal inhibitory concentration (MIC) P. aeruginosa ATCC9027 [3] | Minimal inhibitory concentration (MIC) E. coli ATCC8739 [4] | Minimal inhibitory concentration (MIC) S. aureus ATCC6538 [5] | Minimal inhibitory concentration (MIC) C. albicans ATCC10231 [6] | HD10 [7] | Minimal bactericidal concentration (MBC) B. subtilis ATCC6633 [1] | Minimal bactericidal concentration (MBC) E. faecalis ATCC29121 [2] | Minimal bactericidal concentration (MBC) P. aeruginosa ATCC9027 [3] | Minimal bactericidal concentration (MBC) E. coli ATCC8739 [4] | Minimal bactericidal concentration (MBC) S. aureus ATCC6538 [5] | Minimal bactericidal concentration (MBC) C. albicans ATCC10231 [6] | HC50 at 1 h [8] | length of E. coli cells [9] | average log reduction of the viable cell count [10] | average log reduction of the viable cell count [10]; 8
1 | CC(=O)N[C@@H](CCCCN)c1nc(C)sc1C(=O)N[C@@H](C)c1nc(C)sc1C(=O)N[C@@H](C)c1nc(CCCCN)sc1C(=O)N[C@@H](C)c1nc(C)sc1C(=O)N[C@@H](C)c1nc(CCCCN)sc1C(=O)N[C@@H](CCCCN)c1nc(C)sc1C(=O)N[C@@H](C)c1nc(CCCCN)sc1C(=O)N[C@@H](CCCCN)c1nc(C)sc1C(=O)N[C@@H](C)c1nc(C)sc1C(=O)N[C@@H](C)c1nc(C)sc1C(=O)N[C@@H](C)c1nc(CCCCN)sc1C(=O)N[C@@H](CCCCN)c1nc(C)sc1C(N)=O [Oligomer 5] | 0.8 µM (≈ 2.03 µg/mL) | >150 µM | 100 µM (≈ 253 µg/mL) | 5.2 µM (≈ 13.2 µg/mL) | 100 µM (≈ 253 µg/mL) | 50 µM (≈ 127 µg/mL) | 62.5 µM |  |  |  |  |  |  |  |  |  | 
2 | CC(=O)N[C@@H](CCCNC(=N)N)c1nc(C)sc1C(=O)N[C@@H](C)c1nc(CCCNC(=N)N)sc1C(=O)N[C@@H](C)c1nc(C)sc1C(=O)N[C@@H](CCCNC(=N)N)c1nc(C)sc1C(=O)N[C@@H](C)c1nc(CCCNC(=N)N)sc1C(=O)N[C@@H](C)c1nc(C)sc1C(=O)N[C@@H](CCCNC(=N)N)c1nc(C)sc1C(=O)N[C@@H](C)c1nc(CCCNC(=N)N)sc1C(=O)N[C@@H](C)c1nc(C)sc1C(N)=O [Oligomer 8] | 0.5 µM (≈ 1.04 µg/mL) | 100 µM (≈ 208 µg/mL) | 54 µM (≈ 113 µg/mL) | 0.8 µM (≈ 1.67 µg/mL) | 14.6 µM (≈ 30.4 µg/mL) | 9.4 µM (≈ 19.6 µg/mL) |  | (0.5) μM | (>100) μM | (100) μM | (0.8) μM | (16.5) μM | (12.5) μM | > 100 µM |  |  | 
3 | CC(=O)N[C@@H](CCCNC(=N)N)c1nc(C)sc1C(=O)N[C@@H](C)c1nc(CCCNC(=N)N)sc1C(=O)N[C@@H](C)c1nc(C)sc1C(=O)N[C@@H](CCCNC(=N)N)c1nc(C)sc1C(=O)N[C@@H](C)c1nc(CCCNC(=N)N)sc1C(=O)N[C@@H](C)c1nc(C)sc1C(=O)N[C@@H](CCCNC(=N)N)c1nc(C)sc1C(=O)N[C@@H](C)c1nc(CCCNC(=N)N)sc1C(=O)N[C@@H](C)c1nc(C)sc1C(=O)N[C@@H](CCCNC(=N)N)c1nc(C)sc1C(=O)N[C@@H](C)c1nc(CCCNC(=N)N)sc1C(=O)N[C@@H](C)c1nc(C)sc1C(N)=O [Oligomer 9] | 0.6 µM (≈ 1.66 µg/mL) | 20.8 µM (≈ 57.4 µg/mL) | 4.2 µM (≈ 11.6 µg/mL) | 1.8 µM (≈ 4.97 µg/mL) | 3.1 µM (≈ 8.55 µg/mL) | 6.2 µM (≈ 17.1 µg/mL) |  | (0.8) μM | (25) μM | (4.7) μM | (2.3) μM | (7.8) μM | (6.2) μM | > 100 µM | ≥ 1.3 μm | 0.95 log10 cfu/ml | 4.73 log10 cfu/ml
